Results reported in PMC7356228, “Alvaxanthone, a Thymidylate Synthase Inhibitor with Nematocidal and Tumoricidal Activities” (Molecules, 2020).
Like-named read-outs stand apart in the source and are kept apart here.

Assays:
TsTS = TsTS (Trichinella spiralis, UniProt Q9NDD3); experiment: Inhibition of TS-catalyzed reaction (tritium release from [5-3H]dUMP); format: biochemical, T. spiralis; conditions: 20 µM dUMP; for IC50: IC50 Assessment; for remaining activity at 100 µM: compound 100 µM; for remaining activity at 1000 µM: compound 1000 µM
Sequence of TsTS (Q9NDD3 entry or part of it): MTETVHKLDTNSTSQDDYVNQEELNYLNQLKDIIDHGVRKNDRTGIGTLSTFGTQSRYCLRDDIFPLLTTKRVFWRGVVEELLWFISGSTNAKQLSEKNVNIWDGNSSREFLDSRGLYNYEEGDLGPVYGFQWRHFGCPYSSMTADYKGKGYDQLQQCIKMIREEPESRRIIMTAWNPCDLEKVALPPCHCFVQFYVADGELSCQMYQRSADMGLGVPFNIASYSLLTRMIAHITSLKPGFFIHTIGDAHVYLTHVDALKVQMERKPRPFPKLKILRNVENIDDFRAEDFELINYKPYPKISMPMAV
Excerpt: (§1) The recombinant human, rat, mouse, T. spiralis and C. elegans TS proteins were produced, purified and separated into phosphorylated and non-phosphorylated fraction, as previously described. TS activity was monitored, following tritium release from [5-^3H]dUMP, and its inhibition studied as earlier reported.

CeTS = target: T1, CeTS (Caenorhabditis elegans, UniProt Q9Y052); experiment: as above; format: biochemical, C. elegans; conditions: for remaining activity at 100 µM: compound 100 µM
T1 sequence (Q9Y052 1-315): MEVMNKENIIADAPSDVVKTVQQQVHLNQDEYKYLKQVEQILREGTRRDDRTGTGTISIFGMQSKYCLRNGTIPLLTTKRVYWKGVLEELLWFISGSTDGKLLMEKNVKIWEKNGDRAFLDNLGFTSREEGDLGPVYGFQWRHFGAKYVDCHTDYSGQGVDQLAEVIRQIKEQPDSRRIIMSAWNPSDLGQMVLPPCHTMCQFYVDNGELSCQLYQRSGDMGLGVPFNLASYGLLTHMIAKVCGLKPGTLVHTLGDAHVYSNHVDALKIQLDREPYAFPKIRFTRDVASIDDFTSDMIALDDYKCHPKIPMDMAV
Excerpt: as §1

hTS = target: T2, hTS (Homo sapiens, UniProt P04818); experiment: as above; format: biochemical; conditions: for IC50: read-out: IC50 Assessment
T2 construct: made in house
T2 sequence (P04818 whole entry): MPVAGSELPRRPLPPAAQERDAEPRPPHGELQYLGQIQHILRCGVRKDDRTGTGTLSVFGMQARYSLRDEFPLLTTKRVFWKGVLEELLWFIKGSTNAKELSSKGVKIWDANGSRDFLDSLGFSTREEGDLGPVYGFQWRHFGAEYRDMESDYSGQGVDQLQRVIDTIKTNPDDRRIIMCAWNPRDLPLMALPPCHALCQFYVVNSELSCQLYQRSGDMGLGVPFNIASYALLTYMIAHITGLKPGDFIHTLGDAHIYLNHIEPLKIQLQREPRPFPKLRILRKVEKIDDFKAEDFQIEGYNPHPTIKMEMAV
Excerpt: as §1

mTS = target: T3, mTS (Mus musculus, UniProt P07607); experiment: as above; format: biochemical; conditions: for remaining activity at 10 µM: compound 10 µM
T3 construct: made in house
T3 sequence (P07607 whole entry): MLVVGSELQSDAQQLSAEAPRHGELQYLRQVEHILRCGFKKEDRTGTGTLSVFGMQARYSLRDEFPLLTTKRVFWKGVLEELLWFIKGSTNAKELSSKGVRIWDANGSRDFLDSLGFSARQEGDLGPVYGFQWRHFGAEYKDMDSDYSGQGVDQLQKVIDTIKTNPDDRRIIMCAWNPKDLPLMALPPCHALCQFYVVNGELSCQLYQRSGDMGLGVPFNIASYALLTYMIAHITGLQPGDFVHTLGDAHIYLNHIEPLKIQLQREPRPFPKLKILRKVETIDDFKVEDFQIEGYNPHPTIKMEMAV
Excerpt: as §1

[1] = system: BJ normal human skin fibroblasts; experiment: Cytotoxicity, neutral red uptake (NR) assay; format: cell-based; conditions: Homo sapiens, Skin fibroblast
Experimental: (§2) Biological effect of alvaxanthone and rheediaxanthone B on normal (BJ) and cancer cells (U-118 MG and SCC-15) was estimated using two viability assays, the neutral red uptake (NR) and tetrazolium salts reduction (XTT) assays.
(§3) Human glioblastoma cells U-118 MG (ATCC® HTB-15), human squamous carcinoma cells SCC-15 (ATCC® CRL-1623), and normal human skin fibroblasts (ATCC® CRL-2522) were grown, their morphology checked, and number and viability estimated as earlier presented.
(§4) Influence of selected compounds on cells was tested by performing the cytotoxicity (NR and XTT) assays, proliferation assay, cell adhesion assay, cell migration assay, determination of intracellular ATP level, and apoptosis assay as previously reported.

[2] = system: U-118 MG human glioblastoma cells; experiment: Cytotoxicity, neutral red uptake (NR) assay; format: cell-based
Experimental: as §2, §3, §4

[3] = system: SCC-15 human squamous carcinoma cells; experiment: Cytotoxicity, neutral red uptake (NR) assay; format: cell-based; conditions: Homo sapiens
Experimental: as §2, §3, §4

C. elegans [4] = experiment: Toxicity to C. elegans (population growth)
Experimental: C. elegans was maintained as previously described. The effect of the compounds studied on C. elegans population growth was determined as earlier presented.

C. elegans [5] = conditions: read-out: LC50 (C. elegans population growth); previously found; cited from earlier work
[6] = IC50 Assessment, 20 µM dUMP, 250 µM meTHF
[7] = 20 µM dUMP, 50 µM meTHF, read-out: IC50 Assessment
[8] = compound 1000 µM, 20 µM dUMP, 50 µM meTHF, read-out: % Remaining Activity
[9] = neutral red assay, BJ, read-out: IC50
[10] = neutral red assay, U-118 MG, read-out: IC50
[11] = SCC-15, neutral red assay, read-out: IC50
[12] = compound 50 µM, 20 µM dUMP, 250 µM meTHF
[13] = compound 500 µM, 20 µM dUMP, 250 µM meTHF
[14] = 20 µM dUMP, 250 µM meTHF, read-out: IC50 Assessment
[15] = compound 1000 µM, 20 µM dUMP, 250 µM meTHF, read-out: % Remaining Activity
[16] = 20 µM dUMP, 250 µM meTHF, read-out: % Remaining Activity
[17] = compound 100 µM, 20 µM dUMP, 250 µM meTHF, read-out: % Remaining Activity
[18] = 20 µM dUMP, 50 µM meTHF, read-out: % Remaining Activity
[19] = compound 100 µM, 20 µM dUMP, 50 µM meTHF, read-out: % Remaining Activity
[20] = compound 10 µM, 20 µM dUMP, 50 µM meTHF

COc1c(O)cc2oc3ccccc3c(=O)c2c1O [1,3-OH-2-OMe-Xanthone (16), 1,3-OH-2-OMe-Xanthone]
IC50 (TsTS; 50 µM meTHF): > 100 µM
IC50 (TsTS; 250 µM meTHF): > 100 µM
remaining activity at 100 µM (TsTS; 50 µM meTHF): 82%
remaining activity at 100 µM (TsTS; 250 µM meTHF): 92%
remaining activity at 1000 µM (TsTS; 50 µM meTHF): 32%
remaining activity at 1000 µM (TsTS; 250 µM meTHF): 23%
remaining activity at 1000 µM (CeTS): 65%
IC50 (CeTS; [6]): > 1000 µM
remaining activity at 100 µM (hTS): 54%
remaining activity at 1000 µM (hTS): 27%
remaining activity at 100 µM (mTS): 67%
remaining activity at 1000 µM (mTS): 32%
IC50 [1]: > 40 µM
IC50 ([2]; U-118-MG): > 40 µM
IC50 [3]: > 40 µM

COc1ccc2oc3cccc(O)c3c(=O)c2c1 [1-OH-7-OMe-Xanthone (19), 1-OH-7-OMe-Xanthone]
IC50 (TsTS; 50 µM meTHF): > 1000 µM
remaining activity at 1000 µM (TsTS; 50 µM meTHF): 89%
IC50 (CeTS; [7]): > 1000 µM
remaining activity at 1000 µM (CeTS; [8]): 81%
IC50 (hTS; 20 µM dUMP, 50 µM meTHF): > 1000 µM
remaining activity at 1000 µM (hTS; [8]): 100%
IC50 (mTS; [7]): > 1000 µM
remaining activity at 1000 µM (mTS; [8]): 94%
IC50 [1, 9]: > 40 µM
IC50 [2, 10]: 40 µM
IC50 [3, 11]: > 40 µM

COc1ccc2oc3ccccc3c(=O)c2c1 [2-OMe-Xanthone (20), 2-OMe-Xanthone]
IC50 (TsTS; 50 µM meTHF): > 1000 µM
remaining activity at 1000 µM (TsTS; 50 µM meTHF): 92%
remaining activity at 1000 µM (CeTS): 95%
IC50 (CeTS; IC50 Assessment, 20 µM dUMP, 50 µM meTHF): > 1000 µM
LC50 (C. elegans [4]; Caenorhabditis elegans, read-out: LC50 (reduction of growth of the nematode population)): 33.8 ± 2.1 µM
remaining activity at 1000 µM (hTS): 88%
IC50 (hTS; 20 µM dUMP, 50 µM meTHF): > 1000 µM
remaining activity at 1000 µM (mTS): 84%
IC50 (mTS; [7]): > 1000 µM
IC50 [1]: > 40 µM
IC50 ([2]; U-118-MG): > 40 µM
IC50 [3]: > 40 µM

COc1cc(/C=C/C(=O)CC(=O)/C=C/c2ccc(O)c(OC)c2)ccc1O [Curcumin (1), Curcumin]
IC50 (TsTS; 250 µM meTHF): > 500 µM
remaining activity at 500 µM (TsTS; compound 500 µM, 250 µM meTHF): 73%
remaining activity at 50 µM (CeTS; [12]): 84%
remaining activity at 500 µM (CeTS; [13]): 30%
remaining activity at 50 µM (hTS; [12]): 86%
remaining activity at 500 µM (hTS; [13]): 20%
remaining activity at 50 µM (mTS; [12]): 83%
remaining activity at 500 µM (mTS; [13]): 37%

CC1=C[C@]2(O)C(=O)[C@H](C)C[C@@H]3[C@H](CC[C@](C)(O)C[C@H]2C1=O)C3(C)C [Jatrowediol (10), Jatrowediol]
IC50 (TsTS; 250 µM meTHF): > 1000 µM
remaining activity at 1000 µM (TsTS; 250 µM meTHF): 95%
remaining activity at 1000 µM (CeTS): 77%
IC50 (CeTS; [6]): > 1000 µM
remaining activity at 100 µM (hTS): 100%
remaining activity at 1000 µM (hTS): 43%
remaining activity at 1000 µM (mTS): 80%
IC50 (mTS; [6]): > 1000 µM

COc1cc(/C=C/C(=O)O[C@H]2[C@H](O[C@@H]3O[C@@H](C)[C@H](O)[C@@H](O)[C@H]3O)[C@@H](O)[C@H](OCCc3ccc(O)c(O)c3)O[C@@H]2CO)ccc1O [Leucosceptoside A (13), Leucosceptoside A]
remaining activity at 1000 µM (TsTS; 250 µM meTHF): > 100%
IC50 (CeTS; [14]): > 1000 µM
remaining activity at 1000 µM (CeTS; [15]): 83%
IC50 (hTS; 20 µM dUMP, 250 µM meTHF): > 1000 µM
remaining activity at 1000 µM (hTS; [15]): 66%
IC50 (mTS; [14]): > 1000 µM
remaining activity at 1000 µM (mTS; [15]): 77%

CC(=O)Oc1c(O)cc(-c2oc3cc(O)cc(O)c3c(=O)c2O)cc1O [Myricetin-4′-OAc (7), Myricetin-4′-OAc]
IC50 (TsTS; 250 µM meTHF): > 1000 µM
remaining activity at 1000 µM (TsTS; 250 µM meTHF): 66%
IC50 (CeTS; [14]): > 100 µM
remaining activity at 100 µM (CeTS; [16]): 69%
remaining activity at 1000 µM (CeTS; [15]): 28%
IC50 (hTS; 20 µM dUMP, 250 µM meTHF): > 1000 µM
remaining activity at 100 µM (hTS; [17]): 56%
remaining activity at 1000 µM (hTS; [15]): 31%
remaining activity at 100 µM (mTS; [17]): 61%
remaining activity at 1000 µM (mTS; [15]): 49%

O=C(CCc1ccc(O)cc1)c1c(O)cc(O)cc1O [Phloretin (4), Phloretin]
IC50 (TsTS; 250 µM meTHF): > 1000 µM
remaining activity at 1000 µM (TsTS; 250 µM meTHF): 61%
IC50 (CeTS; [14]): > 100 µM
remaining activity at 100 µM (CeTS; [16]): 82%
remaining activity at 1000 µM (CeTS; [15]): 48%
remaining activity at 100 µM (hTS; [17]): 86%
remaining activity at 1000 µM (hTS; [15]): 31%
remaining activity at 100 µM (mTS; [17]): 78%
remaining activity at 1000 µM (mTS; [15]): 45%

CC1Oc2c(c3c(c4oc5c(O)c(O)ccc5c(=O)c24)C(C)(C)C(C)O3)C1(C)C (stereo not shown) [Rheediaxanthone C (18), Rheediaxanthone C]
IC50 (TsTS; 50 µM meTHF): > 100 µM
remaining activity at 100 µM (TsTS; 50 µM meTHF): 73%
IC50 (CeTS; [7]): > 100 µM
remaining activity at 100 µM (CeTS; [18]): 71%
toxicity for the worm (C. elegans [4]; in vivo): does not show toxicity for the worm
IC50 (hTS; 20 µM dUMP, 50 µM meTHF): > 100 µM
remaining activity at 100 µM (hTS; [19]): 57%
remaining activity at 10 µM (mTS; 20 µM dUMP, 50 µM meTHF): 77%
remaining activity at 100 µM (mTS; [19]): 39%
IC50 [1, 9]: 5.95 µM
IC50 [2, 10]: 18.3 µM
IC50 [3, 11]: 11 µM

COc1c(C2(O)COc3cc(O)cc(O)c3C2=O)ccc2c1C=CC(C)(C)O2 (stereo not shown) [Sophoronol (5), Sophoronol]
IC50 (TsTS; 250 µM meTHF): > 100 µM
remaining activity at 100 µM (TsTS; 250 µM meTHF): 74%
remaining activity at 1000 µM (TsTS; 250 µM meTHF): 35%
IC50 (CeTS; [14]): > 100 µM
remaining activity at 100 µM (CeTS; [16]): 77%
remaining activity at 1000 µM (CeTS; [15]): 8%
remaining activity at 100 µM (hTS; [17]): 75%
remaining activity at 1000 µM (hTS; [15]): 8%
remaining activity at 100 µM (mTS; [17]): 75%
remaining activity at 1000 µM (mTS; [15]): 10%

COC(=O)Nc1nc2ccc(C(=O)c3ccccc3)cc2[nH]1 [mebendazole]
LC50 (C. elegans [5]): 4 µM

COc1c(O)cc2oc3cc(O)c(CC=C(C)C)c(O)c3c(=O)c2c1CC=C(C)C [α-Mangostin (21), α-Mangostin, reference compound]
IC50 (TsTS; 50 µM meTHF): > 100 µM
remaining activity at 100 µM (TsTS; 50 µM meTHF): 85%
remaining activity at 10 µM (CeTS; [20]): 79%
remaining activity at 100 µM (CeTS; [18]): 27%
remaining activity at 10 µM (hTS; [20]): 89%
remaining activity at 100 µM (hTS; [19]): 19%
remaining activity at 10 µM (mTS; 20 µM dUMP, 50 µM meTHF): 75%
remaining activity at 100 µM (mTS; [19]): 5%
LC50 (C. elegans [5]): 3.8 µM
